Experimental findings from US20080311126A1, “Antisense Oligonucleotides Directed to Ribonucleotide Reducatase R2 and Uses Thereof in Combination Therapies for the Treatment of Cancer” (Genesense Technologies, Inc, priority 2004, published 2008) are described below.

Entries after “also recorded” stand apart in the source; their conditions may differ.

In series [1] the test system is DU145 human prostatic cancer cells. Put plainly: DU145 prostatic tumour xenograft in SCID mice. The series is classed as in vivo. On the procedure: In both experiments, DU145 human prostatic cancer cells (1×10^7 cells in 100 μl of PBS) were subcutaneously injected into the right flank of 6-7 weeks old male SCID mice. After the size of tumour reached an approximate volume of 50 mm^3, 13 FIG. 15A) or 11 (FIG. 15B) days post tumour cell injection, SEQ ID NO:1 was administered by bolus infusion into the tail vein every other day at 10 mg/kg 15 times (FIG. 15A) or 14 times (FIG. 15B), respectively. Control animals received saline alone for the same period. Antitumour effect of SEQ ID NO:1 was further compared to that of mitoxantrone (Novantrone®) alone or in combination. Mitoxantrone was administered intravenously once at the beginning of the treatments at a dose of 2 mg/kg (FIG. 15A) or once a week for four weeks at a reduced dose of 0.8 mg/kg (FIG. 15B). All treatments were stopped at day 42 (FIG. 15A) or 38 (FIG. 15B); respectively. A day after the last treatment, tumours were excised from the animals and their weights were measured.

The test system of another series is Human Renal Carcinoma. Description: Tumour growth assay, human renal carcinoma in mice. The series is classed as in vivo.
Series [2] deals with A2058 human melanoma cells. Put plainly: A2058 melanoma xenograft in CD-1 nude mice. Type of series: in vivo. On the procedure: A2058 human melanoma cells 1×10^7 cells in 100 μl of PBS) were subcutaneously injected into the right flank of 6-7 week old female CD-1 nude mice. A2058 is a metastatic melanoma cell line. After the size of tumour reached an approximate volume of 100 mm^3, 6 days post tumour cell injection, SEQ ID NO:1 was administered by bolus infusion into the tail vein every other day at 10 mg/kg. Control animals received saline alone for the same period. Antitumour effect of SEQ ID NO:1 was further compared to that of dacarbazine (DTIC) alone or that of SEQ ID NO:1 in combination with DTIC. DTIC was administered intravenously for 5 days in a row from day 6-10 at a dose of 80 mg/kg in 100 μl saline. All treatments were stopped at day 24. A day after the last treatment, tumours were excised from the animals and their weights were measured.

In another series the test system is Hela S3 cells. Description: Relative colony forming efficiency, lipofectin +/- oligonucleotide 4 hours. Type of series: cell-based, human. Conditions: Hela S3 cervix carcinoma cells; averages of 2-8 determinations. In outline: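 HeLa S3 cells were exposed to phosphorothioate antisense oligonucleotide (0.2 μM unless stated) with lipofectin for 4 h, then grown 7–10 days in 10% FBS medium. Methylene blue-stained colonies were counted and expressed as percent survival relative to lipofectin-only controls.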

A further series relates to Erythroleukemia. Description: Survival assay, erythroleukemia in mice. Type of series: in vivo, murine. How it is done: For the study of the effect of the compositions on leukaemias, the animals are grafted with a particular number of cells, and the anti-tumour activity is determined by the increase in the survival time of the treated mice relative to the controls.

As to “GGCTAAATCGCTCCACCAAG (chemistry not given here) [SEQ ID NO: 1, antisense oligonucleotide that hybridizes to the coding region of human ribonucleotide reductase R2 mRNA]”, the “Tumour weight as % of saline control” value in series [1] (DU145 (prostatic), Mouse SCID, second of two value columns (two independent experiments)) came to 41%; in series [2] (A2058 (melanoma), Mouse CD-1), 20%. The “antitumour effect (tumour weight)” value in series [1] (FIG. 15A, SEQ ID NO:1 10 mg/kg 15 times, mitoxantrone 2 mg/kg once) is “significant delay of tumour growth”; in series [2] (SEQ ID NO:1 10 mg/kg every other day i.v., DTIC 80 mg/kg i.v. 5 days), “significant delay of tumour growth; also recorded: superior to the inhibitory effects observed with DTIC alone”. In addition, the results for the “Inhibition of tumour size” value with Human Renal Carcinoma (Human Renal Carcinoma (first entry)) and in the series with Human Renal Carcinoma (Human Renal Carcinoma^2 (second entry)) were “Approximately 90% inhibition of” and “Approximately 97% inhibition of”, respectively. Besides, the “Reduced relative colony forming efficiency, Hela S3 (% inhibition of colony forming ability)” value in the series on Hela S3 cells came to 67.92%. Also, the “effect of treatment on survival” value in the series on Erythroleukemia (Erythroleukemia) is given as “Treatment prolonged survival”. Besides, the “survival of treated mice” value in the series with Erythroleukemia (untreated died within 36 days, one treated mouse died at day 22) is reported as “Treated mice survived beyond day 71”.
